Assay results from patent US8183211B2, “Pharmaceutical compositions for inhibiting intestinal permeability” (University of Maryland, Baltimore, priority 2000, dated 2012).
Ends that are not written are not given here.

Key:
rabbit ileum = assay: Tissue resistance (Rt) of rabbit ileum mounted in Ussing chambers; type: cell-based
Method: Next, rabbit ileum mounted in Ussing chambers as described above, were exposed to 100 μg of FZI/0 (SEQ ID NO:15), 100 μg of FZI/1 (SEQ ID NO:29), 1.0 μg of 6×His-ZOT (obtained as described in Example 1 of U.S. patent application Ser. No. 09/127,815, filed Aug. 3, 1998), 1.0 μg of zonulini (obtained as described in Example 3 of U.S. patent application Ser. No. 09/127,815, filed Aug. 3, 1998), or 1.0 μg of zonulinh (obtained as described in Example 3of U.S. patent application Ser. No. 09/127,815, filed Aug. 3, 1998), alone; or pre-exposed for 20 min to 100 μg of FZI/0 or FZI/1, at which time 1.0 μg of 6×His-ZOT, 1.0 μg of zonulini, or 1.0 μg of zonulinh, was added. ΔRt was then calculated as described above.

BB/Wor rats = assay: BB/Wor diabetic rat model, progression to diabetes; type: in vivo; settings: 10 μg/ml in drinking water
Method: Both groups were maintained on a standard diet of rat chow (Harlan Teklab Diet #7012). All food and water were previously autoclaved. Each day, daily water intake was measured and 100 ml of fresh water was given. The treated group received 10 μg/ml of the zonulin peptide antagonist (SEQ ID NO:15) supplemented in the drinking water. The rats were housed in hepa-filter cages.
Diabetes in the rats was diagnosed as follows: The rats were weighed twice a week. Blood glucose was determined weekly using the OneTouch® glucose monitoring system (Johnson & Johnson). Each week, reagent strips for urinalysis were used to monitor glucose (Diastix®) and ketones (Ketositx®) (Bayer). Rats with a blood glucose>250 mg/dl were fasted overnight, and blood glucose levels>200 mg/dl were considered diabetic.
Following clinical presentation of diabetes, the rats were sacrificed as follows: the rats were anesthesized using ketamine anesthesia and a midline incision was made allowing access to the heart. An 18 G needle was placed into the heart and death occurred by exsanguinations. Then, zonulin assays were conducted as described above. […] According to Biomedical Research Models, Inc., 80% of diabetes prone rats present with diabetes by age 80 days.

rabbit ileal mucosa = settings: cited from earlier work

Substance: GGVLVQPG [FZI/0, synthetic octapeptide corresponding to amino acid residues 8-15 of human fetal zonulini]
- change in Rt as compared to the negative control (rabbit ileum; 100 μg peptide alone, rabbit ileum): 0.5%
- decrease of the effect of ZOT on Rt (rabbit ileum; pre-treatment for 20 min with 100 μg peptide, then 1.0 μg 6×His-ZOT): 75%
- decrease of the effect of zonulinh on Rt (rabbit ileum; pre-treatment for 20 min with 100 μg peptide, then 1.0 μg zonulinh): 100%
- decrease of the effect of zonulini on Rt (rabbit ileum; pre-treatment for 20 min with 100 μg peptide, then 1.0 μg zonulini): 97%
- treated rats that did not develop diabetes (BB/Wor rats; endpoint age 80 days): 60%
- rats that developed diabetes by age 80 days (BB/Wor rats; n=5, control rats 80%): 40%

Substance: FZI/1: second synthetic peptide: Gly in position 8, Val in position 12, Gln in position 13 changed to Val, Gly, Arg (VGVLGRPG; tight junction antagonist peptide) [reference compound]
- inhibitory effect on ZOT, zonulini and zonulinh action on Rt (rabbit ileum; pre-exposure for 20 min to 100 μg peptide): completely ablated

Substance: ZOT: zonula occludens toxin elaborated by V. cholerae
- Na+-glucose coupled active transport (rabbit ileal mucosa): does not affect
- cytotoxicity (rabbit ileal mucosa): not cytotoxic
- transepithelial resistance (rabbit ileal mucosa): fails to completely abolish
